Measurements as given in US7195769B2, “Pharmaceutical compositions of anti-tubercular drugs and process for their preparation” (Panacea Biotec Limited, priority 2000, dated 2007).

Assay: pH dependence of rifampicin degradation in presence of isoniazid
Format: physicochemical
Excerpt: Thereafter, above pH 3 the degradation is minimal.

CO[C@H]1/C=C/O[C@@]2(C)Oc3c(C)c(O)c4c(O)c(c(/C=N/N5CCN(C)CC5)c(O)c4c3C2=O)NC(=O)/C(C)=C\C=C\[C@H](C)[C@H](O)[C@@H](C)[C@@H](O)[C@@H](C)[C@H](OC(C)=O)[C@@H]1C [rifampicin]
degradation of rifampicin in presence of isoniazid (above pH 3): minimal
degradation of rifampicin in presence of isoniazid (pH around 1): minimum
degradation of rifampicin in presence of isoniazid (pH between 2 and 3): increases abruptly
